# Data from patent US7658928B2, “Method of vaccination comprising administering an antigen and a cathelicidin derived antimicrobial peptide” (Intercell AG, priority 2000, dated 2010).
# How the values were obtained:
# [1] = tested on: P388D1 cells (murine monocyte-macrophage antigen presenting cell line); assay: TRANSloading assay: uptake of fluorescein-tagged antigenic peptide into P388D1 cells with carrier-peptides, flow cytometry; assay type: cell-based; conditions: for uptake of antigens in dendritic cells: summary statement, cells of mice
# [2] = tested on: IFN-γ-producing specific cells (TRP-2 181-188 VYDFFVWL); assay: IFN-γ ELISpot after vaccination of mice with TRP-2 peptide plus carrier-peptide; assay type: in vivo, mice (C57BL/6); conditions: s.c. days 0, 7, 14, 100 μg VYDFFVWL + carrier-peptide, two weeks after 3rd vaccination, versus peptide alone or peptide plus poly-L-arginine; for IFN-γ-producing specific cells, splenocytes: FIG. 10
# Experimental: The groups of mice were injected as follows (amounts indicated/per mouse). • (1) 100 μg […] (SEQ ID NO:25) • (2) 100 μg […] (SEQ ID NO:25)+100 μg poly-L-arginine • (3) 100μ […] (SEQ ID NO:25)+[…] cathelicidin derived antimicrobial peptide (SEQ ID NO:1) • (4) 100 μg […] (SEQ ID NO:25)+500 μg bovine indolicidin (SEQ ID NO:3)
# Two weeks after the 3rd vaccination, draining (inguinal) lymph nodes and spleens were removed and […].
# [3] = tested on: tumor growth; conditions: co-injection with an appropriate peptide as a vaccine, mouse models (Schmidt, Buschle et al. 1997); cited from earlier work
# [4] = tested on: mast cells; conditions: mast cells (Niyonsaba, Someya et al. 2001); cited from earlier work
# [5] = tested on: CD4+ T cells; conditions: Agerberth, Charo et al. 2000; De, Chen et al. 2000; cited from earlier work
# [6] = tested on: neutrophils; conditions: Agerberth, Charo et al. 2000; De, Chen et al. 2000; cited from earlier work
# [7] = tested on: peripheral blood monocytes; conditions: utilizing formyl peptide receptor-like 1 (FPRL1) (De, Chen et al. 2000); cited from earlier work
# [8] = tested on: human CD1a positive dendritic cells; assay: TRANSloading of human dendritic cells with MHC class I and MHC class II peptides by LL-37; assay type: cell-based
# Experimental: To compare the efficiency of peptide delivery of these diverse “carrier-peptides”, the amount of peptide uptake into APCs was monitored by incubating P388D1 cells (murine monocyte-macrophage antigen presenting cell line; purchased from ATCC (TIB-63), or human CD1a positive (derived from human HLA-A2 positive donors, CD14+ positive PBMCS) dendritic cells, for 1 h at 37° C. with a constant amount of fuorescein-tagged peptide alone or in combination with diverse “carrier-peptides” at concentrations indicated. Before analysing the cells by flow cytometry, the cells were washed extensively to remove free peptide. The relative amount of fluorescein-tagged peptide taken up by the cells was measured by flow-cytometry.
# FIG. 8a • (1) no peptide (cells alone) • (2) 2.5 μg FL-[…] (SEQ ID NO:23) (MHC class I; peptide alone) • (3) 2.5 μg FL-[…] (SEQ ID NO:23) (MHC class I)+30 μg LL-37 (SEQ ID:2)
# FIG. 8b • (1) no peptide (cells alone) • (2) 2.5 μg FL-[…] (SEQ ID NO:24) (MHC class II; peptide alone) • (3) 2.5 μg FL-[…] (SEQ ID NO:24) (MHC class II)+30 μg LL-37 (SEQ ID:2)
# [9] = tested on: immature and mature dendritic cells; conditions: Yang, Chen et al. 2001; cited from earlier work
substance,measurement,setting,value
"murine cathelicidin derived antimicrobial peptide: murine cathelin-related antimicrobial peptide, SEQ ID NO:1 (SRLAGLLRKGGEKIGEKLKKIGQKIKNFFQKL)",uptake of antigens in dendritic cells,[1],enhance the uptake of antigens
same,"IFN-γ-producing specific cells, splenocytes",[2],more IFN-γ-producing specific cells
"bovine dodecapeptide: bovine cathelicidin derived antimicrobial dodecapeptide, SEQ ID NO:4, linear form in Example 3 (RLCRIVVIRVCR)",pulsing effect with increasing amounts of carrier-peptide,"[1]; Example 3, FIG. 6, 2 μg FL-LFEAIEGFI + 18.75, 37.5, 75, 150 μg linear bovine dodecapeptide",increased significantly
same,uptake of antigens in dendritic cells,[1],enhance the uptake of antigens
poly-L-arginine,protection from tumor growth,[3],protects animals from tumor growth
"LL-37: human cathelicidin derived antimicrobial peptide, C-terminal domain of hCAP-18 (LLGDFFRKSKEKIGKEFKRIVQRIKDFLRNLVPRTES)",histamine release,[4],shown to induce
same,intracellular calcium mobilization,[4],shown to induce
same,chemotactic activity for CD4+ T cells,[5],exert chemotactic activity
same,chemotactic activity for neutrophils,[6],exert chemotactic activity
same,chemotaxis of peripheral blood monocytes,[7],induces chemotaxis
same,pulsing of human dendritic cells with MHC class I antigenic peptide,"[8]; FIG. 8a, 2.5 μg FL-[…] + 30 μg LL-37",to a significant extent
same,pulsing of human dendritic cells with MHC class II antigenic peptide,"[8]; FIG. 8b, 2.5 μg FL-[…] + 30 μg LL-37",to a significant extent
same,uptake of antigens in dendritic cells,"[8]; summary statement, cells of men",enhance the uptake of antigens
same,chemotactic activity for immature and mature dendritic cells,[9],no chemotactic activity
PR-39: porcine proline-arginine-rich 39-amino-acid cathelicidin peptide (RRRPRPPYLPRPRPPPFFPPRLPPRIPPGFPPRFPPRFPGKR) [reference compound],chemotactic activity for neutrophils,[6],exert chemotactic activity
poly-L-lysine,protection from tumor growth,[3],protects animals from tumor growth
NH2-ILPWKWPWWPWRR-CONH2 [bovine indolicidin],uptake of antigens in dendritic cells,[1],enhance the uptake of antigens
same,"IFN-γ-producing specific cells, lymph node cells",[2]; FIG. 9,more IFN-γ-producing specific cells
same,"IFN-γ-producing specific cells, splenocytes",[2],more IFN-γ-producing specific cells
